The values that follow come from patent publication US20260265525A1, “DEVELOPMENT OF HIGHLY FLUOROGENIC STYRENE PROBES FOR VISUALIZING RNA IN LIVE CELLS” (UNIVERSITY OF SOUTHERN CALIFORNIA, priority 2023, published 2026).

For data set [1] the following is noted: previously reported; cited from earlier work.
The next data set has as its system rRNA. The data set is described as follows: Native-PAGE gel staining. On the set-up: species or system Baker's yeast. As for the experimental part:
1 L of 10×TBE running buffer was prepared by mixing 108 g of Tris Base, 55 g of boric acid, and 40 mL of 0.5 M EDTA (Apex). The combined solution was diluted to 1 L by filtered H2O. 14 mL of 8% Native-PAGE gel was prepared by mixing 0.7 mL of 10×TBE buffer, 0.14 mL of 10% APS buffer (Bio-Rad), and 3.73 mL of 30% acrylamide solution. The mixture was diluted to 14 mL with filtered water. 28 μL of TEMED (Sigma) was added to the mixture. The gel mixture was transferred into the casting frame placed in a precooled gel chamber. An 18-well cast was put on the top and left for polymerization for 15 min on ice. The gel chamber was filled with cold 0.5×TBE running buffer. The gel was pre-run at 150 V for 40 min. The RNA marker mixture was loaded (5 μL micro-RNA marker+0.4 μL low range marker (Bio-Rad) for one well). 5 μL of rRNA sample was loaded to reach rRNA amount as 1 and 10 μg. The RNA marker and rRNA sample loading had four repeats on the same gel. The gel was run at 150 V for 30 min. The cut gels were stained and shaken in 25 mL of 1×SYBR Gold (Thermo Fisher), 2 μM 1c, 20 μM 1c, and 40 μM 1c for 15 min. The gels were de-stained with 0.5×TBE buffer and shaken for 10 min. The buffer was removed, and the gels were imaged using an Amersham Typhoon Biomolecular […].

A further data set deals with DNA from calf thymus. Kind of data set: Fluorescence titration of 1c with nucleic acids or BSA. In kind it is binding. Particulars: fluorogenic response with DNA vs RNA. The protocol:
Solutions of torula yeast RNA type IV (RNA mixture) and DNA from calf thymus (Sigma) were prepared and stored at 4° C. overnight. Bovine serum albumin (BSA, Thermo Fisher) and Baker's yeast RNA (rRNA, Sigma) solutions were prepared at 2 h before testing. 100 μL of 1 μM 1c were diluted by corresponding substrates solution reaching concentrations ranging from 0 to 1000 μg/mL of nucleic acids or BSA. The resulting mixtures were placed in a 96-well opaque plate. The plate with the mixture was gently shaken for 5 min before being evaluated by a microplate reader.

The next data set deals with RNA/spermine condensates. Kind of data set: Staining and FLIM imaging of RNA-spermine condensates. On the set-up: species or system torula yeast. To be noted: 10 μM. The protocol:
A 1 wt % stock solution of torula yeast RNA type IV was prepared in nuclease-free water and stored in multiple aliquots at −20° C. Final concentrations of RNA ranged from 0.02 to 0.4 wt %. A 1 wt % stock solution of spermine was prepared in deionized water and stored at 4° C. The spermine (Sigma) concentration was fixed at 0.1 wt %. Dye 1c was prepared as 10 mM stock solutions in DMSO. Condensates were prepared in a 5 mM HEPES (pH 7.4, VWR), 1 mM MgCl2 buffer. Stock solutions were added in the following order for the preparation of each sample: deionized water, HEPES, MgCl2, RNA, and spermine. Samples were mixed via gentle pipetting in between the addition of each component. RNA condensates were incubated with 10 μM 1c for 1 min at room temperature. To image the condensates, 20 μL of the incubated sample was added onto a glass coverslip and mounted onto a glass slide. Images were acquired using fluorescence confocal microscopy and FLIM.

For data set [2], the system named is RNA mixture (torula yeast RNA type IV). Kind of data set: Comparison of fluorogenic response with SYTO RNASelect. In kind it is binding. To be noted: same RNA species. As for the experimental part:
100 μL of 1 μM 1c and SYTO RNASelect were diluted by 100 μL solutions of RNA mixture to reach final concentrations ranging from 0 to 1000 μg/mL. The resulting mixtures were placed in a 96-well opaque plate. The plate with the mixture was gently shaken for 5 min before being evaluated by a microplate reader (SpectraMax iD5).

Data set [3] is described as follows: Spectral and photophysical characterization of free dyes in T.E. buffer. To be noted: for Stokes shift / molar absorptivity: T.E. buffer; for emission wavelength (maximum) / fluorescence quantum yield of free dye / maximum absorbance wavelength: free dye in T.E. buffer. The data set is classed as physicochemical. As for the experimental part:
After the synthesis of the styrene dyes, their photophysical properties were evaluated. The spectral and photophysical properties (absorption, emission, molar absorptivity (ε), fluorescence quantum yield (ΦDF), and fluorescence enhancement) of probes 1a-1d were measured in DMSO and T.E. buffer (Tris-HCl, 1 mM EDTA, pH=7.5). FIG. 2D provides measurements of the fluorescent enhancement for several of the fluorescent probes.
(§1) Coumarin 6 was used as a reference dye for MPI, 1a, and 1b and Rhodamine 6G was used as a reference for 1c and 1d. Absorption spectra were collected by Shimadzu UV-1800 spectrophotometer. Samples were loaded in plastic disposable cuvette. Emission spectra were obtained by Photon Technology International QuantaMaster model C-60 Fluorimeter in 1×1 cm^2 quartz cuvettes. Fluorescence quantum yields were then calculated according to the method by Lawson-wood, Upstone, and Evans. (58) The torula yeast type IV RNA (Sigma) solution was prepared as a 200 μg/mL solution in T.E. buffer (Tris-HCl, EDTA, pH 7.6, Bioworld) without sonicating to avoid shearing of nucleic acids. All measurements were taken using samples with a final dye concentration of 10 μM.

The test system of a further data set is live HeLa cells. The data set is described as follows: Live-cell and time-resolved confocal imaging. To be noted: for cellular localization of fluorescence signals: live HeLa, 20 μM, 30 min; for time after addition at which nucleoli could be clearly discerned: live cells, dye in medium. The data set is classed as cell-based. The protocol:
HeLa cells were cultured at a density of 7000 cells/well on chambered glass sides and incubated at 37° C. overnight or until fully adherent. After removing the medium and washing with DPBS (Thermo Fisher), the cells were incubated with dyes in PBS (Thermo Fisher) for 30 min at 37° C. with 5% CO2 on the microscope stage and analyzed directly. Fluorescence images were acquired using a confocal microscope (Leica SP8, Leica Microsystems) and analyzed using ImageJ. MPI (20 μM) was excited at 440 nm, SYTO RNASelect (0.1-1 μM, Thermo Fisher) was excited at 490 nm, 1c (10 nM-20 μM) was excited at 550 nm, and 1d (20 μM) was excited at 500 nm.
HeLa cells were cultured on eight-well chambered glass slides (iBidi μ-slides) and incubated overnight at 37° C. with 5% CO2 until totally adherent. Staining solutions for each dye were prepared in serum-free DMEM and kept warm at 37° C. The cells were monitored from 0 to 30 min, where t=0 is the time right before the addition of the dye. Images were acquired at t=0, 0.5, 1, 2, 5, 10, 15, 20, 25, and 30 min for each dye. Fluorescence images were analyzed and quantified with ImageJ.

A further data set deals with PFA-fixed HeLa cells. The data set is described as follows: Fixed-cell imaging. In kind it is cell-based. To be noted: HeLa fixed with 4% PFA. As for the experimental part:
HeLa cells were cultured on 6-well plates containing glass coverslips and incubated at 37° C. overnight or until fully adherent. After removing the medium and washing with DPBS, the cells were fixed with 4% paraformaldehyde for 10 min at ambient temperature. After fixation, the cells were rinsed with PBS and incubated with dye solutions in PBS for 30 min at ambient temperature. After incubation, the dye solutions were removed and cells were gently washed with PBS three times. The coverslips were mounted onto glass slides, sealed, and analyzed using confocal microscopy.

The subject of another data set is fixed HeLa cells. Kind of data set: Ribonuclease (RNase) digest experiment. To be noted: fixed cells treated with RNase. The data set is classed as cell-based. The protocol:
HeLa cells were cultured in six-well plates with glass coverslips and incubated at 37° C. overnight to totally adherent. The cells were fixed according to the protocol described above with minor modifications. A solution of 4% paraformaldehyde+0.1% Triton-X was prepared in PBS and used to fix and permeabilize HeLa cells. The cells were incubated with this solution for 20 min at room temperature. After rinsing the cells with PBS, the cells were stained with 1 μM 1c, 1d, or SYTO in PBS for 30 min at room temperature. After removing the staining solution, 0.5 mL of RNase ([…]) and PBS (negative control) was added into each respective well and incubated for 6 h. After incubation, the medium was removed, and the cells were thoroughly washed with PBS three times. The glass coverslips were mounted onto glass slides, sealed, and analyzed using confocal microscopy.

The next data set relates to torula yeast type IV RNA. The data set is described as follows: Quantum yield and fluorescence enhancement of dyes incubated with RNA. Particulars: for quantum yield in RNA solution: 10 μM dye, 200 μg/mL RNA in T.E. buffer; for fluorescence enhancement upon binding RNA: ratio of quantum yield of dye in RNA solution over free dye. The data set is classed as binding. As for the experimental part: To determine the fluorescence change of 1a-1d in the presence of RNA, the dyes (10 μM) were incubated with torula yeast type IV RNA in T.E. buffer and measured the spectral and photophysical parameters as described above. Fold-enhancement values were calculated by taking the ratio of the quantum yield of dyes in RNA solution over free dyes.
as §1

Take methyl pyridinium indole [MPI]: in [1], the “absorption wavelength (reported)” value was ~ 440 nm, the “emission wavelength (reported)” value is listed as ~ 540 nm and the “fluorescence quantum yield (reported)” value is reported as 32%.

Turning to `C[n+]1ccc(/C=C/c2ccc3ccccn23)cc1.[I-]` [Dye 1c], in the data set on rRNA, the “sensitivity of gel staining versus SYBR Gold” value is listed as “lower than the commercial standard, SYBR Gold” and the “staining of RNA in PAGE-gels” value is given as “can stain RNA in PAGE-gels”. In addition, the “selectivity for RNA over DNA in vitro” value with DNA from calf thymus is on record as “moderate selectivity for RNA over DNA”. In addition, the “partitioning into RNA coacervates” value in the data set with RNA/spermine condensates is listed as “readily partitions into RNA coacervates”. Also, the “fluorogenic response compared with SYTO RNASelect” value in data set [2] is listed as “significantly higher fluorogenic responses than SYTO™ RNASelect”. Also, in [3], the Stokes shift is 86 nm, the molar absorptivity turned out to be 27500 M⁻¹ cm⁻¹, the “emission wavelength (maximum)” value was 596 nm and the “fluorescence quantum yield of free dye” value is on record as 0.10%. In data set [3], the maximum absorbance wavelength is reported as 510 nm. In the data set on live HeLa cells, the “lowest concentration used to resolve nucleoli” value amounted to 10 nM; the “cellular localization of fluorescence signals” value was “primarily within the nucleoli and cytoplasm”; the “time after addition at which nucleoli could be clearly discerned” value is 30 s. Further, the “concentration sufficient for visualizing nucleoli (dose-response study)” value with live HeLa cells (live HeLa cells) was “nanomolar concentrations”. Also, the “localization of fluorescence signals in fixed cells” value with PFA-fixed HeLa cells was “predominantly coming from the nucleoli and cytoplasm”. In addition, the “dependence of nucleolar staining on RNA” value in the data set on fixed HeLa cells was “RNA-dependent”. Also, in the data set with torula yeast type IV RNA, the “quantum yield in RNA solution” value was found to be 49% and the “fluorescence enhancement upon binding RNA” value is recorded as 490 fold.

Consider `C[n+]1ccc(/C=C/c2cc3ccccc3[nH]2)cc1.[I-]` [Dye 1b], for which, in data set [3], the Stokes shift was determined as 142 nm, the molar absorptivity turned out to be 24400 M⁻¹ cm⁻¹, the “emission wavelength (maximum)” value is listed as 568 nm and the “fluorescence quantum yield of free dye” value amounted to 0.12%. Moreover, the maximum absorbance wavelength in [3] was 410 nm. In addition, in the data set with torula yeast type IV RNA, the “quantum yield in RNA solution” value is 3.9% and the “fluorescence enhancement upon binding RNA” value is given as 33 fold.

Turning to `C[n+]1ccc(/C=C/c2ccn3ccccc23)cc1.[I-]` [Dye 1d], in [3], the Stokes shift worked out at 86 nm, the molar absorptivity came out at 34600 M⁻¹ cm⁻¹, the “emission wavelength (maximum)” value is reported as 572 nm and the “fluorescence quantum yield of free dye” value is 0.38%. Moreover, the maximum absorbance wavelength in data set [3] was found to be 486 nm. Moreover, in the data set on live HeLa cells, the “cellular localization of fluorescence signals” value is “primarily within the nucleoli and cytoplasm”; the “time after addition at which nucleoli could be clearly discerned” value worked out at 30 s. Further, the “localization of fluorescence signals in fixed cells” value in the data set on PFA-fixed HeLa cells is “predominantly coming from the nucleoli and cytoplasm”. In the data set with torula yeast type IV RNA, the “quantum yield in RNA solution” value is reported as 50% and the “fluorescence enhancement upon binding RNA” value was 132 fold.

For the compound `Cn1c(/C=C/c2cc[n+](C)cc2)cc2ccccc21.[I-]` [Dye 1a], in data set [3], the Stokes shift is 162 nm, the molar absorptivity came to 20600 M⁻¹ cm⁻¹, the “emission wavelength (maximum)” value came to 584 nm and the “fluorescence quantum yield of free dye” value is reported as 0.12%. The compound also yielded a maximum absorbance wavelength in data set [3] of 422 nm. In the data set with torula yeast type IV RNA, the “quantum yield in RNA solution” value came to 9.9% and the “fluorescence enhancement upon binding RNA” value is given as 104 fold.

Take `C[n+]1ccc(/C=C/c2c[nH]c3ccccc23)cc1.[I-]` [IN]: in [1], the “absorption wavelength (reported)” value was ~ 440 nm and the “emission wavelength (reported)” value was ~ 540 nm.
